The nature of data set [1]: Multicomponent nitrilium-trapping macrocyclisation: Pro NH + EtCHO (1.5 equiv) gives an iminium, Pinc (N-isocyanoimino)triphenylphosphorane (1.2 equiv) adds, C-terminal benzoate traps the nitrilium, then aza-Wittig to the 1,3,4-oxadiazole (18 h). The note with it: the molecule shown is the open-chain precursor, 1:1 DCE/MeCN, 25.0 mM, 50.0 °C, 12 steps.
Data set [2] can be described thus: Multicomponent nitrilium-trapping macrocyclisation: Pro NH + EtCHO (1.5 equiv), Pinc2 (ethyl 2-isocyano-2-(triphenylphosphanylidene)acetate, 1.5 equiv), AcOH (0.1 equiv); carboxylate traps the nitrilium, then Wittig to the oxazole (18 h). The note with it: the molecule shown is the open-chain precursor, 1:1 DCE/MeCN, 25.0 mM, 50.0 °C, 12 steps.

Data on seven molecules can be found in paper PMC10498670.

For `Cc1cccc(NC(=O)CNC(=O)[C@H](CC(C)C)NC(=O)[C@H](C)NC(=O)CNC(=O)[C@@H]2CCCN2)c1C(=O)O` [H-Pro-Gly-Ala-Leu-Gly-(2-amino-6-methylbenzoic acid)-OH], the ring closure, overall yield in data set [1] (22-membered ring) turned out to be 18%; in data set [2] (22-membered ring, 18.0 h) it was 0%.

Take `CC(C)C[C@H](NC(=O)[C@H](C)NC(=O)CNC(=O)[C@@H]1CCCN1)C(=O)NCC(=O)Nc1ccccc1C(=O)O` [H-Pro-Gly-Ala-Leu-Gly-(2-aminobenzoic acid)-OH]: the ring closure, overall yield in data set [1] (22-membered ring) was 15%; in data set [2] (22-membered ring, 18.0 h) it was 0%.

With `Cc1c(NC(=O)CNC(=O)[C@H](CC(C)C)NC(=O)[C@H](C)NC(=O)CNC(=O)[C@@H]2CCCN2)cccc1C(=O)O` [H-Pro-Gly-Ala-Leu-Gly-(3-amino-2-methylbenzoic acid)-OH], the ring closure, overall yield in data set [1] (23-membered ring) is 25%; in data set [2] (23-membered ring, 18.0 h), 23%.

Take `CC(C)C[C@H](NC(=O)[C@H](C)NC(=O)CNC(=O)[C@@H]1CCCN1)C(=O)NCC(=O)Nc1cccc(C(=O)O)c1` [H-Pro-Gly-Ala-Leu-Gly-(3-aminobenzoic acid)-OH]: the ring closure, overall yield was determined as 38% in data set [1] (23-membered ring) and 35% in data set [2] (23-membered ring, 18.0 h).

Turning to `CC(C)C[C@H](NC(=O)[C@H](C)NC(=O)CNC(=O)[C@@H]1CCCN1)C(=O)NCC(=O)Nc1ccc(C(=O)O)c(Cl)c1` [H-Pro-Gly-Ala-Leu-Gly-(4-amino-2-chlorobenzoic acid)-OH], the ring closure, overall yield came out at 17% in data set [1] (24-membered ring) and 0% in data set [2] (24-membered ring).

As for `CC(C)C[C@H](NC(=O)[C@H](C)NC(=O)CNC(=O)[C@@H]1CCCN1)C(=O)NCC(=O)Nc1ccc(C(=O)O)cc1` [H-Pro-Gly-Ala-Leu-Gly-(4-aminobenzoic acid)-OH], the ring closure, overall yield in data set [1] (24-membered ring) is 18%; in data set [2] (24-membered ring), 0%.

With `CC(C)C[C@H](NC(=O)CNC(=O)[C@@H]1CCCN1)C(=O)N[C@@H](CC(=O)OC(C)(C)C)C(=O)N[C@H](C(=O)Nc1cccc(C(=O)O)c1)[C@@H](C)OC(C)(C)C` [H-Pro-Gly-Leu-Asp(OtBu)-Thr(OtBu)-(3-aminobenzoic acid)-OH], the ring closure, overall yield in data set [1] (23-membered ring) turned out to be 27%; in data set [2] (23-membered ring, 18.0 h), 21%.
